In patent US20250163522A1, “METHODS FOR PRESERVING HEALTHY INTESTINAL MICROBIOME DURING GROWTH PROMOTER ADMINSTRATION” (BIOMEDIT, LLC, priority 2022, published 2025):
Like-named read-outs stand apart in the source and are kept apart here.

What was measured:
[1] = test system: Ross 708 male broilers; assay: Clinical study of in-feed AGPs in broilers: weight gain and feed conversion; format: in vivo, chickens (Gallus gallus); settings: in-feed: 50 g/ton BMD, 20 g/ton avilamycin, 16.5 g/ton virginiamycin, 70 g/ton narasin; 35 days
Source text: 500 healthy Ross 708 male broilers sourced from a commercial hatchery were used in the experiment. […] Birds were individually tagged with a unique identifier and were randomly assigned to one of 25 floor pens (20 animals per pen). Groups of 5 pens were assigned to each of 5 different treatments. The 5 treatments included: 1) control birds fed least-cost diets as follows: A starter diet was fed from days 0 to 14 of the study, followed by a grower diet (14-28d) and a finisher diet (28-35d). 2) Birds fed the above diets supplemented with 50 g/ton BMD. 3) Supplemented with 20 g/ton avilamycin. 4) Supplemented with 16.5 g/ton Virginiamycin. And 5) supplemented with 70 g/ton narasin. Birds were raised for 35 days in a barn on top of used litter.
Individual body weights were collected on days 0, 7, 21 and 35. Pen weights were collected on days 14 and 28. Feed weigh backs for each pen were done on days 7, 14, 21, 28 and 35 of the study. Average bird weights and feed intake per pen were used to calculate weekly values of average daily gain and feed conversion ratios. Weekly values were compared between treatments using the Mann Whitney U test. On days 7, 21 and 35 three birds per pen were randomly selected and euthanized for the collection of cecal contents and blood. Blood was collected via wing vein venipuncture, except for birds that were too small, in which cases direct heart puncture was used. In both cases, blood was collected into vacutainer tubes and centrifuged to obtain serum. Cecal samples were collected by aseptically squeezing the cecum content into a sterile tube. Cecal samples were placed on dry ice immediately after collection. All samples were stored at −80° C. until processing.

[2] = test system: AMR genes in the cecum microbiome; assay: AMR gene abundance analysis (AMR++ pipeline) of cecal microbiome; format: in vivo, chickens (Gallus gallus); settings: day 35 cecum
Procedure: AMR gene abundances per sample were determined using the AMR++ pipeline (Lakin, S. M. et al., Nucleic Acids Res 45, D574-D580 (2017)) (v. 2.0.2) starting from the raw metagenomics sequences and using the MegaRes (v. 2.0.0) database. Only genes involved in drug resistance were considered. The AMR gene counts per sample obtained from AMR++ were expressed in unites of reads per kilobase per million reads (RPKM) based on the corresponding gene lengths from the MegaRes database. RPKM values across treatments were compared using the Mann-Whitney U test.

[3] = format: in vivo, chickens (Gallus gallus)
Procedure: 15 cecal samples and 10 serum samples from day 35 birds were sent to metabolon (Morrisville, NC) for untargeted metabolomics analysis. These numbers of samples were sent for both the control and narasin treatments. Serum samples were selected sequentially, that is, without knowledge of bird performance or results from other analyses.
Samples were prepared using the automated MicroLab STAR® system from Hamilton Company. Samples were extracted with methanol under vigorous shaking for 2 min (Glen Mills GenoGrinder 2000) to precipitate protein and dissociate small molecules bound to protein or trapped in the precipitated protein matrix, followed by centrifugation to recover chemically diverse metabolites. The resulting extract was divided into four fractions: two for analysis by two separate reverse phase (RP)/Ultrahigh Performance Liquid Chromatography-Tandem Mass Spectroscopy (UPLC-MS/MS) methods using positive ion mode electrospray ionization (ESI), one for analysis by RP/UPLC-MS/MS using negative ion mode ESI, and one for analysis by HILIC/UPLC-MS/MS using negative ion mode ESI. Samples were placed briefly on a TurboVap® (Zymark) to remove the organic solvent. The sample extracts were stored overnight under nitrogen before preparation for analysis.
The sample extract was dried and reconstituted in solvents compatible to each of the four methods. One aliquot was analyzed using acidic positive ion conditions, chromatographically optimized for more hydrophilic compounds. In this method, the extract is gradient-eluted from a C18 column (Waters UPLC BEH C18-2.1×100 mm, 1.7 μm) using water and methanol, containing 0.05% perfluoropentanoic acid (PFPA) and 0.1% formic acid (FA). A second aliquot was also analyzed using acidic positive ion conditions but was chromatographically optimized for more hydrophobic compounds. In this method, the extract is gradient eluted from the C18 column using methanol, acetonitrile, water, 0.05% PFPA and 0.01% FA, and is operated at an overall higher organic content. A third aliquot was analyzed using basic negative ion optimized conditions using a separate dedicated C18 column. The basic extracts were gradient-eluted from the column using methanol and water, and with 6.5 mM Ammonium Bicarbonate at pH 8. The fourth aliquot was analyzed via negative ionization following elution from a HILIC column (Waters UPLC BEH Amide 2.1×150 mm, 1.7 μm) using a gradient consisting of water and acetonitrile with 10 mM Ammonium Formate, pH 10.8. The MS analysis alternates between MS and data-dependent MS^n scans using dynamic exclusion. The scan range varies slightly between methods, but covers approximately 70-1000 m/z.
UPLC-MS/MS was done using a Waters ACQUITY ultra-performance liquid chromatography (UPLC) and a Thermo Scientific Q-Exactive high resolution/accurate mass spectrometer interfaced with a heated electrospray ionization (HESI-II) source and Orbitrap mass analyzer operated at 35,000 mass resolution.
Raw data was extracted, peak-identified, and QC processed using Metabolon's hardware and software. Compounds were identified by comparison to library entries of purified standards. The library, based on authenticated standards, contains the retention time/index (RI), mass to charge ratio (m/z), and chromatographic data (including MS/MS spectral data) on all molecules present in the library. Biochemical identifications were based on three criteria: retention index within a narrow RI window of the proposed identification, accurate mass match to the library+/−10 ppm, and the MS/MS forward and reverse scores. MS/MS scores are based on a comparison of the ions present in the experimental spectrum to ions present in the library entry spectrum.
Peaks were quantified as area-under-the-curve (AUC) detector ion counts. For each identified metabolite, AUC values were rescaled by dividing by the median AUC value across all samples. […]

[4] = cecum, day 35, corrected p-value<0.05

Compound: CC[C@@H](C(=O)O)[C@@H]1O[C@@H]([C@@H](C)[C@H](O)[C@H](C)C(=O)[C@H](CC)[C@H]2O[C@]3(C=C[C@@H](O)[C@]4(CC[C@@](C)([C@H]5CC[C@](O)(CC)[C@H](C)O5)O4)O3)[C@H](C)C[C@@H]2C)[C@@H](C)C[C@@H]1C [narasin]
- impact on bird performance [1]: highest impact on performance
- effect on AMR gene abundance profiles [2]: significantly different AMR gene abundance profiles
- AMR gene classes changed compared to controls ([2]; Mann-Whitney U p-value<0.05): enriched for resistance to tetracyclines
- total AMR gene abundance compared to control ([2]; RPKM): significant increase
- spermidine concentration ([3]; cecum and serum, day 35): lower concentration
- amino acid concentrations compared to controls ([3]; cecum, day 35): all 20 amino acids were found at lower concentrations
- riboflavin concentration ([3]; cecum, day 35): higher concentration
- number of metabolites at higher abundance compared to controls [3, 4]: 49
- number of metabolites at lower abundance compared to controls [3, 4]: 78
- number of metabolites at higher abundance compared to controls ([3]; serum, day 35): 4
- number of metabolites at lower abundance compared to controls ([3]; serum, day 35): 93
- urea level compared to controls ([3]; serum, day 35): lower levels
